{"source": "ChEMBL document CHEMBL6182898", "about": "“Design, synthesis and bioevaluation of novel hydrazide derivatives as enhancers of immunotherapy and DNA-damage response in antitumor therapy” (Eur J Med Chem, 2025)", "key": {"4T1 [1]": {"test_system": "4T1", "assay": "Synergistic induction of DNA damage in mouse 4T1 cells assessed as decrease in PARP1 level at 1 uM incubated for 24 hrs in presence of Olaparib by Western blot analysis", "format": "functional, cell-based"}, "[2]": {"assay": "VRT (0 to infinity) in male Sprague-Dawley rat at 2 mg/kg, iv measured for 0.083 to 12 hrs by LC-MS/MS analysis", "format": "ADME, organism-based", "settings": "in vivo, time 0.083-12 hrs"}, "[3]": {"assay": "AUC (0 to t) in male Sprague-Dawley rat at 2 mg/kg, iv measured for 0.083 to 12 hrs by LC-MS/MS analysis", "format": "ADME, organism-based", "settings": "in vivo, time 0.083-12 hrs"}, "[4]": {"molecular_target": "T1, Histone deacetylase 3 (Mus musculus) (UniProt O88895)", "T1 sequence (whole entry)": "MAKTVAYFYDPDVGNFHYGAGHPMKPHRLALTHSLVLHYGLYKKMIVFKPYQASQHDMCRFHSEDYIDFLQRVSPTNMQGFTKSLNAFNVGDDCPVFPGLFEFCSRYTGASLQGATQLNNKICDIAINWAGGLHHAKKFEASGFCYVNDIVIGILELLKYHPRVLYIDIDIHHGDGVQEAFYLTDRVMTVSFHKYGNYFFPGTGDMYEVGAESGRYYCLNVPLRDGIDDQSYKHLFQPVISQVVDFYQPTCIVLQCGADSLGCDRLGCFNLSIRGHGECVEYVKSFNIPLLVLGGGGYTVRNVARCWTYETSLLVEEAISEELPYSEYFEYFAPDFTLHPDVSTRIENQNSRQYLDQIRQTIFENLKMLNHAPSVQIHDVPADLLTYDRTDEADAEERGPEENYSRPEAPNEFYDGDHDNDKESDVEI", "assay": "In vivo inhibition of HDAC3 in mouse B16-F10 cells implanted in male C57BL/6J mouse assessed as increase in Ac-H3 level at 25 mg/kg, IG treated for 14 days consecutively in presence of NP-19 by immunofluorescence based analysis", "format": "functional, organism-based", "settings": "time 14.0 day"}, "[5]": {"assay": "Clearance in male Sprague-Dawley rat at 2 mg/kg, iv measured for 0.083 to 12 hrs by LC-MS/MS analysis", "format": "ADME, organism-based", "settings": "in vivo, time 0.083-12 hrs"}, "[6]": {"assay": "Half life in male Sprague-Dawley rat at 2 mg/kg, iv measured for 0.083 to 12 hrs by LC-MS/MS analysis", "format": "ADME, organism-based", "settings": "in vivo, time 0.083-12 hrs"}, "B16-F10 [7]": {"test_system": "B16-F10", "assay": "Induction of antitumor immunity in mouse B16-F10 cells implanted in male C57BL/6J mouse assessed as CD3+CD8+ T cell infiltration at 25 mg/kg, IG treated for 14 days consecutively in presence of NP-19 by flow cytometry (reference value: 10 %)", "format": "functional", "settings": "time 14 day"}, "[8]": {"assay": "MRT (0 to infinity) in male Sprague-Dawley rat at 20 mg/kg, po measured for 0.083 to 12 hrs by LC-MS/MS analysis", "format": "ADME, organism-based", "settings": "in vivo, time 0.083-12 hrs"}, "B16-F10 [9]": {"test_system": "B16-F10", "assay": "Induction of antitumor immunity in mouse B16-F10 cells implanted in male C57BL/6J mouse assessed as CD3+CD8+ T cell infiltration at 50 mg/kg, IG treated for 14 days consecutively by flow cytometry (reference value: 10 %)", "format": "functional", "settings": "time 14 day"}, "4T1 [10]": {"test_system": "4T1", "assay": "Synergistic antitumor activity against mouse 4T1 cells implanted in mouse at 25 mg/kg/day in presence of olaparib relative to control", "format": "functional", "settings": "read-out: TGI"}, "[11]": {"assay": "Clast in male Sprague-Dawley rat at 2 mg/kg, iv measured for 0.083 to 12 hrs by LC-MS/MS analysis", "format": "ADME, organism-based", "settings": "in vivo, time 0.083-12 hrs"}, "[12]": {"assay": "VRT (0 to t) in male Sprague-Dawley rat at 20 mg/kg, po measured for 0.083 to 12 hrs by LC-MS/MS analysis", "format": "ADME, organism-based", "settings": "in vivo, time 0.083-12 hrs"}, "[13]": {"molecular_target": "T1, Histone deacetylase 3 (Mus musculus)", "assay": "In vivo inhibition of HDAC3 in mouse B16-F10 cells implanted in male C57BL/6J mouse assessed as decrease in PD-L1 level at 50 mg/kg, IG treated for 14 days consecutively by immunofluorescence based analysis", "format": "functional, organism-based", "settings": "time 14.0 day"}, "[14]": {"assay": "Toxicity in male C57BL/6J mouse implanted with mouse B16-F10 cells assessed as histopathological damage in liver at 50 mg/kg, IG treated for 14 days consecutively by H and E staining based analysis", "format": "organism-based", "settings": "in vivo, po, 336 h, time 14 day"}, "4T1 [15]": {"test_system": "4T1", "assay": "Antitumor activity against mouse 4T1 cells implanted in mouse at 50 mg/kg/day relative to control", "format": "functional", "settings": "read-out: TGI"}, "[16]": {"molecular_target": "T1, Histone deacetylase 3 (Mus musculus)", "assay": "In vivo inhibition of HDAC3 in mouse B16-F10 cells implanted in male C57BL/6J mouse assessed as increase in Ac-H3 level at 50 mg/kg, IG treated for 14 days consecutively by Western blot analysis", "format": "functional, organism-based", "settings": "time 14.0 day"}, "4T1 [17]": {"test_system": "4T1", "assay": "Induction of DNA damage in mouse 4T1 cells implanted in mouse assessed as increase in gamma-H2AX level at 50 mg/kg/day by Western blot analysis", "format": "functional, organism-based"}, "[18]": {"assay": "VRT (0 to infinity) in male Sprague-Dawley rat at 20 mg/kg, po measured for 0.083 to 12 hrs by LC-MS/MS analysis", "format": "ADME, organism-based", "settings": "in vivo, time 0.083-12 hrs"}, "[19]": {"assay": "MRT (0 to infinity) in male Sprague-Dawley rat at 2 mg/kg, iv measured for 0.083 to 12 hrs by LC-MS/MS analysis", "format": "ADME, organism-based", "settings": "in vivo, time 0.083-12 hrs"}, "Mus musculus": {"test_system": "Mus musculus", "assay": "Effect on Ac-alpha-tubulin in mouse B16-F10 cells implanted in male C57BL/6J mouse at 50 mg/kg, IG treated for 14 days consecutively by Western blot analysis", "format": "functional, organism-based", "settings": "time 14.0 day"}, "[20]": {"assay": "Toxicity in male C57BL/6J mouse implanted with mouse B16-F10 cells assessed as histopathological damage in kidney at 25 mg/kg, IG treated for 14 days consecutively in presence of NP-19 by H and E staining based analysis", "format": "organism-based", "settings": "in vivo, po, 336 h, time 14 day"}, "[21]": {"assay": "Oral bioavailability in male Sprague-Dawley rat at 20 mg/kg measured for 0.083 to 12 hrs by LC-MS/MS analysis", "format": "ADME, organism-based", "settings": "in vivo, time 0.083-12 hrs"}, "[22]": {"assay": "Toxicity in male C57BL/6J mouse implanted with mouse B16-F10 cells assessed as histopathological damage in heart at 50 mg/kg, IG treated for 14 days consecutively by H and E staining based analysis", "format": "organism-based", "settings": "in vivo, po, 336 h, time 14 day"}, "4T1 [23]": {"test_system": "4T1", "assay": "Induction of DNA damage in mouse 4T1 cells assessed as decrease in PARP1 level at 2 uM incubated for 24 hrs by Western blot analysis", "format": "functional, cell-based"}, "B16-F10 [24]": {"test_system": "B16-F10", "assay": "Induction of antitumor immunity in mouse B16-F10 cells implanted in male C57BL/6J mouse assessed as CD3+CD4+ T cell infiltration at 25 mg/kg, IG treated for 14 days consecutively in presence of NP-19 by flow cytometry (reference value: 7.4 %)", "format": "functional", "settings": "time 14 day"}, "[25]": {"assay": "MRT (0 to t) in male Sprague-Dawley rat at 2 mg/kg, iv measured for 0.083 to 12 hrs by LC-MS/MS analysis", "format": "ADME, organism-based", "settings": "in vivo, time 0.083-12 hrs"}, "4T1 [26]": {"test_system": "4T1", "assay": "Induction of DNA damage in mouse 4T1 cells implanted in mouse assessed as decrease in PARP level at 50 mg/kg/day by immunofluorescence based analysis", "format": "functional, organism-based"}, "[27]": {"assay": "AUMC (0 to t) in male Sprague-Dawley rat at 2 mg/kg, iv measured for 0.083 to 12 hrs by LC-MS/MS analysis", "format": "ADME, organism-based", "settings": "in vivo, time 0.083-12 hrs"}, "[28]": {"assay": "AUC (0 to infinity) in male Sprague-Dawley rat at 20 mg/kg, po measured for 0.083 to 12 hrs by LC-MS/MS analysis", "format": "ADME, organism-based", "settings": "in vivo, time 0.083-12 hrs"}}, "note": "The source made the active and inactive calls. The rule behind the calls is not given here."}
{"smiles": "CCCNNC(=O)CCCCCCNC(=O)c1cnc(-c2ccc(NC(=O)OC(C)(C)C)cc2)s1", "values": [{"measurement": "Activity", "setting": "4T1 [1]", "result": "Active"}, {"measurement": "VRT", "setting": "[2]", "result": 0.98, "unit": "h²"}, {"measurement": "AUC(0-t)", "setting": "[3]", "result": 657, "unit": "ng·h/mL"}, {"measurement": "inhibition", "setting": "[4]", "result": "Active"}, {"measurement": "clearance", "setting": "[5]", "result": 53.8, "unit": "mL/min/kg"}, {"measurement": "half-life", "setting": "[6]", "result": 2.21, "unit": "h"}, {"measurement": "Activity", "setting": "B16-F10 [7]", "result": 38, "unit": "%"}, {"measurement": "MRT inf", "setting": "[8]", "result": 3.13, "unit": "h"}, {"measurement": "Activity", "setting": "B16-F10 [9]", "result": 22, "unit": "%"}, {"measurement": "inhibition in vivo at 25 mg/kg/day", "setting": "4T1 [10]", "result": 88, "unit": "%"}, {"measurement": "Clast", "setting": "[11]", "result": 0.24, "unit": "ng/mL"}, {"measurement": "VRT(t)", "setting": "[12]", "result": 6.38, "unit": "h²"}, {"measurement": "inhibition", "setting": "[13]", "result": "Active"}, {"measurement": "Activity", "setting": "[14]", "result": "Non-toxic"}, {"measurement": "inhibition in vivo at 50 mg/kg/day", "setting": "4T1 [15]", "result": 64, "unit": "%"}, {"measurement": "inhibition", "setting": "[16]", "result": "Active"}, {"measurement": "Activity", "setting": "4T1 [17]", "result": "Active"}, {"measurement": "VRT", "setting": "[18]", "result": 14.7, "unit": "h²"}, {"measurement": "MRT inf", "setting": "[19]", "result": 0.37, "unit": "h"}, {"measurement": "Activity", "setting": "Mus musculus", "result": "No effect"}, {"measurement": "Activity", "setting": "[20]", "result": "Non-toxic"}, {"measurement": "bioavailability", "setting": "[21]", "result": 0.49, "unit": "%"}, {"measurement": "Activity", "setting": "[22]", "result": "Non-toxic"}, {"measurement": "Activity", "setting": "4T1 [23]", "result": "Active"}, {"measurement": "Activity", "setting": "B16-F10 [24]", "result": 28, "unit": "%"}, {"measurement": "MRT last", "setting": "[25]", "result": 0.34, "unit": "h"}, {"measurement": "Activity", "setting": "4T1 [26]", "result": "Active"}, {"measurement": "AUMCt", "setting": "[27]", "result": 223.08, "unit": "hr.hr.ug/L"}, {"measurement": "AUC(0-inf)", "setting": "[28]", "result": 32.1, "unit": "ng·h/mL"}]}
